Assay results reported in patent publication US7176313B2, “Anti acid-fast bacterial agent containing pyridonecarboxylic acids as active ingredient” (Daiichi Pharmaceutical Co., Ltd., priority 2000, dated 2007).
Converted amounts (≈) assume the structure as drawn.

Tests used:
[1] = test system: reticulocytes (RC); assay: Peripheral blood micronucleus test; type: in vivo, Male Slc:ddY mice; settings: mice, intravenous
Protocol: Peripheral Blood Micronucleus Test
Used animals and administration method are similar to those in the mouse acute toxicity test. Samples were prepared by collecting 5 μl each of blood sample from the tail vein at 24 and 48 hours after the administration, dropping the blood on a slide at which 0.1% acridine orange solution had been applied in advance, sealing the slide with a cover glass immediately, and allowing it to stand in a refrigerator for 24 hours.

[2] = Mouse acute toxicity test; type: in vivo, Male Slc:ddY mice; settings: intravenous
Protocol: Mouse Acute Toxicity Test
Male Slc:ddY mice at age of 5-weeks were used as test animals. For dissolving the compounds, 0.1 mol/l NaOH (in saline) was used. Mice were administered intravenously at a rate of 0.1 ml/30 seconds at a dosing volume of 10 ml/kg.

[3] = test system: M. avium; assay: Antibacterial activity (MIC) against M. avium; type: cell-based, Mycobacterium avium
Protocol: Antibacterial activity of the compounds of the invention was measured in accordance with the method described in the literature of Antimicrob. […] In the tables, “OFLX” is an abbreviation of “OFLOXAIN”.

[4] = test system: Mycobacterium tuberculosis (RFP sensitive); assay: Antibacterial activity (MIC) against Mycobacterium tuberculosis (RFP sensitive); type: cell-based
[5] = test system: M. intracellulare; assay: Antibacterial activity (MIC) against M. intracellulare; type: cell-based, Mycobacterium intracellulare
Protocol: Antibacterial activity of the compounds of the invention was measured in accordance with the method described in the literature of Antimicrob. Agents and Chemother., 38, 2877 (1994), and the results are shown in Tables 3 to 8 in terms of MIC (μg/ml). In the tables, “OFLX” is an abbreviation of “OFLOXAIN”.

[6] = M. tuberculosis Kurono, Table 5
[7] = M. tuberculosis No. 40, Table 5
[8] = M. tuberculosis No. 41, Table 5
[9] = M. tuberculosis No. 43, Table 5
[10] = M. tuberculosis No. 68, Table 5
[11] = M. intracellulare N-294, Table 3
[12] = M. intracellulare N-313, Table 3
[13] = M. intracellulare N-338, Table 3
[14] = M. intracellulare N-345, Table 3

C[C@H]1COc2c(N3CCN[C@@H](c4ccccc4)C3)c(F)cc3c(=O)c(C(=O)O)cn1c23 [Compd. 27, 9-Fluoro-2,3-dihydro-3-(S)-methyl-7-oxo-10-[3-(S)-phenyl-1-piperazinyl]-7H-pyrido[1.2.3-de][1,4]benzoxazine-6-carboxylic acid]
MNRC (%) mean ±S.E. 24 hours ([1]; 100 mg/kg, 24 hours after administration): 0.20 ± 0.03%
MNRC (%) mean ±S.E. 48 hours ([1]; 100 mg/kg, 48 hours after administration): 0.18 ± 0.04%
micronucleus induction ([1]; (untreated control: 0.12±0.08)): weak
survival of mice after administration ([2]; text summary of Table 9): all mice were survived
Mortality (dead/ test) ([2]; mice, 100 mg/kg): 0/5
acute toxicity ([2]; mice, text summary of Table 9): relatively weak

O=C(O)c1cn([C@@H]2C[C@@H]2F)c2c(Cl)c(N3CC4CCCNC4C3)c(F)cc2c1=O (some centres unmarked) [Compd. 2]
MIC ([3]; M. avium N-357, Table 3): 0.20 µg/mL (≈ 0.472 µM)
MIC ([3]; M. avium N-444, Table 3): 0.39 µg/mL (≈ 0.92 µM)
MIC ([3]; M. avium N-458, Table 3): 0.20 µg/mL (≈ 0.472 µM)
MIC ([3]; M. avium N-472, Table 3): 0.78 µg/mL (≈ 1.84 µM)
MIC ([4]; M. tuberculosis H37Rv, Table 5): 0.025 µg/mL (≈ 0.059 µM)
MIC [4, 6]: 0.013 µg/mL (≈ 0.0307 µM)
MIC [4, 7]: 0.025 µg/mL (≈ 0.059 µM)
MIC [4, 8]: 0.006 µg/mL (≈ 0.0142 µM)
MIC [4, 9]: 0.10 µg/mL (≈ 0.236 µM)
MIC [4, 10]: 0.025 µg/mL (≈ 0.059 µM)
MIC [5, 11]: 0.39 µg/mL (≈ 0.92 µM)
MIC [5, 12]: 0.20 µg/mL (≈ 0.472 µM)
MIC [5, 13]: 0.39 µg/mL (≈ 0.92 µM)
MIC [5, 14]: 0.78 µg/mL (≈ 1.84 µM)

CCC1CN(c2c(F)cc3c(=O)c(C(=O)O)cn(C4CC4)c3c2OC)CCN1 (centres unmarked) [Compd. 17]
MIC ([3]; M. avium N-357, Table 4 (series 2)): 1.0 µg/mL (≈ 2.57 µM)
MIC ([3]; M. avium N-444, Table 4 (series 2)): 2.0 µg/mL (≈ 5.14 µM)
MIC ([3]; M. avium N-458, Table 4 (series 2)): 1.0 µg/mL (≈ 2.57 µM)
MIC ([3]; M. avium N-472, Table 4 (series 2)): 8.0 µg/mL (≈ 20.5 µM)
MIC ([4]; M. tuberculosis H37Rv, Table 6 (series 2)): 0.12 µg/mL (≈ 0.308 µM)
MIC ([4]; M. tuberculosis Kurono, Table 6 (series 2)): 0.12 µg/mL (≈ 0.308 µM)
MIC ([4]; M. tuberculosis No. 40, Table 6 (series 2)): 0.12 µg/mL (≈ 0.308 µM)
MIC ([4]; M. tuberculosis No. 41, Table 6 (series 2)): 0.06 µg/mL (≈ 0.154 µM)
MIC ([4]; M. tuberculosis No. 43, Table 6 (series 2)): 2.0 µg/mL (≈ 5.14 µM)
MIC ([4]; M. tuberculosis No. 68, Table 6 (series 2)): 0.25 µg/mL (≈ 0.642 µM)
MIC ([5]; M. intracellulare N-294, Table 4 (series 2)): 2.0 µg/mL (≈ 5.14 µM)
MIC ([5]; M. intracellulare N-313, Table 4 (series 2)): 0.25 µg/mL (≈ 0.642 µM)
MIC ([5]; M. intracellulare N-338, Table 4 (series 2)): 1.0 µg/mL (≈ 2.57 µM)
MIC ([5]; M. intracellulare N-345, Table 4 (series 2)): 1.0 µg/mL (≈ 2.57 µM)

Cc1c(N2CC(N)C3(CC3)C2)c(F)cc2c(=O)c(C(=O)O)cn([C@@H]3C[C@@H]3F)c12 (some centres unmarked) [Compd. 12]
MIC ([3]; M. avium N-357, Table 3): 0.20 µg/mL (≈ 0.514 µM)
MIC ([3]; M. avium N-444, Table 3): 0.39 µg/mL (≈ 1 µM)
MIC ([3]; M. avium N-458, Table 3): 0.39 µg/mL (≈ 1 µM)
MIC ([3]; M. avium N-472, Table 3): 1.56 µg/mL (≈ 4.01 µM)
MIC ([4]; M. tuberculosis H37Rv, Table 5): 0.025 µg/mL (≈ 0.0642 µM)
MIC [4, 6]: 0.025 µg/mL (≈ 0.0642 µM)
MIC [4, 7]: 0.025 µg/mL (≈ 0.0642 µM)
MIC [4, 8]: 0.006 µg/mL (≈ 0.0154 µM)
MIC [4, 9]: 0.10 µg/mL (≈ 0.257 µM)
MIC [4, 10]: 0.05 µg/mL (≈ 0.128 µM)
MIC [5, 11]: 0.78 µg/mL (≈ 2 µM)
MIC [5, 12]: 0.20 µg/mL (≈ 0.514 µM)
MIC [5, 13]: 0.39 µg/mL (≈ 1 µM)
MIC [5, 14]: 0.39 µg/mL (≈ 1 µM)

Cc1c(N2CC3CCCNC3C2)c(F)cc2c(=O)c(C(=O)O)cn(C3CC3)c12 (centres unmarked) [Compd. 9]
MIC ([3]; M. avium N-357, Table 3): 0.10 µg/mL (≈ 0.259 µM)
MIC ([3]; M. avium N-444, Table 3): 0.10 µg/mL (≈ 0.259 µM)
MIC ([3]; M. avium N-458, Table 3): 0.10 µg/mL (≈ 0.259 µM)
MIC ([3]; M. avium N-472, Table 3): 0.78 µg/mL (≈ 2.02 µM)
MIC ([4]; M. tuberculosis H37Rv, Table 5): 0.025 µg/mL (≈ 0.0649 µM)
MIC [4, 6]: 0.013 µg/mL (≈ 0.0337 µM)
MIC [4, 7]: 0.013 µg/mL (≈ 0.0337 µM)
MIC [4, 8]: <0.003 µg/mL
MIC [4, 9]: 0.10 µg/mL (≈ 0.259 µM)
MIC [4, 10]: 0.025 µg/mL (≈ 0.0649 µM)
MIC [5, 11]: 0.39 µg/mL (≈ 1.01 µM)
MIC [5, 12]: 0.10 µg/mL (≈ 0.259 µM)
MIC [5, 13]: 0.39 µg/mL (≈ 1.01 µM)
MIC [5, 14]: 0.39 µg/mL (≈ 1.01 µM)
